Earlier results in US12357536B2, “Containers with selective dissolved gas content” (BAXTER INTERNATIONAL INC., priority 2021, dated 2025).
Where two headings read alike, the source gives them in different places.

Conditions: cited from earlier work; for Solubility of oxygen: 760 mm Hg, salinity 0.0 ppt

## O=O [oxygen]
3.0 °C
  Solubility of oxygen: 13.445 ppm
3.2 °C
  Solubility of oxygen: 13.374 ppm
3.4 °C
  Solubility of oxygen: 13.303 ppm
3.6 °C
  Solubility of oxygen: 13.233 ppm
3.8 °C
  Solubility of oxygen: 13.163 ppm
4.0 °C
  Solubility of oxygen: 13.094 ppm
4.2 °C
  Solubility of oxygen: 13.025 ppm
4.4 °C
  Solubility of oxygen: 12.957 ppm
4.6 °C
  Solubility of oxygen: 12.890 ppm
4.8 °C
  Solubility of oxygen: 12.823 ppm
5.0 °C
  Solubility of oxygen: 12.757 ppm
5.2 °C
  Solubility of oxygen: 12.692 ppm
5.4 °C
  Solubility of oxygen: 12.627 ppm
5.6 °C
  Solubility of oxygen: 12.563 ppm
5.8 °C
  Solubility of oxygen: 12.499 ppm
6.0 °C
  Solubility of oxygen: 12.436 ppm
6.2 °C
  Solubility of oxygen: 12.373 ppm
6.4 °C
  Solubility of oxygen: 12.311 ppm
6.6 °C
  Solubility of oxygen: 12.249 ppm
6.8 °C
  Solubility of oxygen: 12.188 ppm
7.0 °C
  Solubility of oxygen: 12.127 ppm
7.2 °C
  Solubility of oxygen: 12.067 ppm
7.4 °C
  Solubility of oxygen: 12.008 ppm
7.6 °C
  Solubility of oxygen: 11.949 ppm
7.8 °C
  Solubility of oxygen: 11.980 ppm
8.0 °C
  Solubility of oxygen: 11.832 ppm
8.2 °C
  Solubility of oxygen: 11.774 ppm
8.4 °C
  Solubility of oxygen: 11.717 ppm
8.6 °C
  Solubility of oxygen: 11.661 ppm
8.8 °C
  Solubility of oxygen: 11.604 ppm
9.0 °C
  Solubility of oxygen: 11.549 ppm
9.2 °C
  Solubility of oxygen: 11.493 ppm
9.4 °C
  Solubility of oxygen: 11.439 ppm
9.6 °C
  Solubility of oxygen: 11.384 ppm
9.8 °C
  Solubility of oxygen: 11.331 ppm
10.0 °C
  Solubility of oxygen: 11.277 ppm
10.2 °C
  Solubility of oxygen: 11.224 ppm
10.4 °C
  Solubility of oxygen: 11.172 ppm
10.6 °C
  Solubility of oxygen: 11.119 ppm
10.8 °C
  Solubility of oxygen: 11.068 ppm
11.0 °C
  Solubility of oxygen: 11.016 ppm
11.2 °C
  Solubility of oxygen: 10.995 ppm
11.4 °C
  Solubility of oxygen: 10.915 ppm
11.6 °C
  Solubility of oxygen: 10.865 ppm
11.8 °C
  Solubility of oxygen: 10.815 ppm
12.0 °C
  Solubility of oxygen: 10 766 ppm
12.2 °C
  Solubility of oxygen: 10.717 ppm
12.4 °C
  Solubility of oxygen: 10.669 ppm
12.6 °C
  Solubility of oxygen: 10.620 ppm
12.8 °C
  Solubility of oxygen: 10.573 ppm
13.0 °C
  Solubility of oxygen: 10.525 ppm
13.2 °C
  Solubility of oxygen: 10.478 ppm
13.4 °C
  Solubility of oxygen: 10.432 ppm
13.6 °C
  Solubility of oxygen: 10.386 ppm
13.8 °C
  Solubility of oxygen: 10.340 ppm
14.0 °C
  Solubility of oxygen: 10.294 ppm
14.2 °C
  Solubility of oxygen: 10.249 ppm
14.4 °C
  Solubility of oxygen: 10.204 ppm
14.6 °C
  Solubility of oxygen: 10.160 ppm
14.8 °C
  Solubility of oxygen: 10.115 ppm
15.0 °C
  Solubility of oxygen: 10.072 ppm
15.2 °C
  Solubility of oxygen: 10.028 ppm
15.4 °C
  Solubility of oxygen: 9.985 ppm
15.6 °C
  Solubility of oxygen: 9.942 ppm
15.8 °C
  Solubility of oxygen: 9.900 ppm
16.0 °C
  Solubility of oxygen: 9.858 ppm
16.2 °C
  Solubility of oxygen: 9.816 ppm
16.4 °C
  Solubility of oxygen: 9.774 ppm
16.6 °C
  Solubility of oxygen: 9.733 ppm
16.8 °C
  Solubility of oxygen: 9.692 ppm
17.0 °C
  Solubility of oxygen: 9.651 ppm
17.2 °C
  Solubility of oxygen: 9.611 ppm
17.4 °C
  Solubility of oxygen: 9.571 ppm
17.6 °C
  Solubility of oxygen: 9.531 ppm
17.8 °C
  Solubility of oxygen: 9.492 ppm
18.0 °C
  Solubility of oxygen: 9.453 ppm
18.2 °C
  Solubility of oxygen: 9.414 ppm
18.4 °C
  Solubility of oxygen: 9.375 ppm
18.6 °C
  Solubility of oxygen: 9.337 ppm
18.8 °C
  Solubility of oxygen: 9.299 ppm
19.0 °C
  Solubility of oxygen: 9.261 ppm
19.2 °C
  Solubility of oxygen: 9.224 ppm
19.4 °C
  Solubility of oxygen: 9.187 ppm
19.6 °C
  Solubility of oxygen: 9.150 ppm
19.8 °C
  Solubility of oxygen: 9.113 ppm
20.0 °C
  Solubility of oxygen: 9.077 ppm
20.2 °C
  Solubility of oxygen: 9.040 ppm
20.4 °C
  Solubility of oxygen: 9.004 ppm
20.6 °C
  Solubility of oxygen: 8.969 ppm
20.8 °C
  Solubility of oxygen: 8.933 ppm
21.0 °C
  Solubility of oxygen: 8.989 ppm
21.2 °C
  Solubility of oxygen: 8.863 ppm
21.4 °C
  Solubility of oxygen: 8.829 ppm
21.6 °C
  Solubility of oxygen: 8.794 ppm
21.8 °C
  Solubility of oxygen: 8.760 ppm
22.0 °C
  Solubility of oxygen: 8.726 ppm
22.2 °C
  Solubility of oxygen: 8.693 ppm
22.4 °C
  Solubility of oxygen: 8.659 ppm
22.6 °C
  Solubility of oxygen: 8.626 ppm
22.8 °C
  Solubility of oxygen: 8.583 ppm
About room temperature (approx.) 21° C
  DO concentration of a solution saturated with oxygen: about 8 ppm
